Measurements from ChEMBL document CHEMBL2074336, “Reversal of P-glycoprotein-associated multidrug resistance by ivermectin” (Biochem Pharmacol, 1997).
One block for each compound: values may come before it.

How the values were obtained:
Assay type in all cases: functional, cell membranes, Plasma membrane
Settings in all cases: cem-vlb
[1] = target: T1, ATP-dependent translocase ABCB1 (Homo sapiens, UniProt P08183); assay: TP_TRANSPORTER: inhibition of IAAP photoaffinity labelling (IAAP: 0.02 uM, PSC-833: 100-fold molar excess) in plasma membranes from CEM/VLB1.0 cells
[2] = target: T1, ATP-dependent translocase ABCB1; assay: TP_TRANSPORTER: inhibition of Ivermectin binding (IVM: 0.2 uM, Vinblastine: 300-fold molar excess) in plasma membranes from CEM/VLB1.0 cells; parameters: scale not given: the % may be the effect or the level left
[3] = target: T1, ATP-dependent translocase ABCB1; assay: TP_TRANSPORTER: inhibition of Vinblastine binding (Vinblastine: 0.2 uM, IVM: 300-fold molar excess) in plasma membranes from CEM/VLB1.0 cells; parameters: scale not given: the % may be the effect or the level left
[4] = target: T1, ATP-dependent translocase ABCB1; assay: TP_TRANSPORTER: inhibition of IAAP photoaffinity labelling (IAAP: 0.02 uM, IVM: 100-fold molar excess) in plasma membranes from CEM/VLB1.0 cells; parameters: scale not given: the % may be the effect or the level left

T1 sequence (P08183 whole entry): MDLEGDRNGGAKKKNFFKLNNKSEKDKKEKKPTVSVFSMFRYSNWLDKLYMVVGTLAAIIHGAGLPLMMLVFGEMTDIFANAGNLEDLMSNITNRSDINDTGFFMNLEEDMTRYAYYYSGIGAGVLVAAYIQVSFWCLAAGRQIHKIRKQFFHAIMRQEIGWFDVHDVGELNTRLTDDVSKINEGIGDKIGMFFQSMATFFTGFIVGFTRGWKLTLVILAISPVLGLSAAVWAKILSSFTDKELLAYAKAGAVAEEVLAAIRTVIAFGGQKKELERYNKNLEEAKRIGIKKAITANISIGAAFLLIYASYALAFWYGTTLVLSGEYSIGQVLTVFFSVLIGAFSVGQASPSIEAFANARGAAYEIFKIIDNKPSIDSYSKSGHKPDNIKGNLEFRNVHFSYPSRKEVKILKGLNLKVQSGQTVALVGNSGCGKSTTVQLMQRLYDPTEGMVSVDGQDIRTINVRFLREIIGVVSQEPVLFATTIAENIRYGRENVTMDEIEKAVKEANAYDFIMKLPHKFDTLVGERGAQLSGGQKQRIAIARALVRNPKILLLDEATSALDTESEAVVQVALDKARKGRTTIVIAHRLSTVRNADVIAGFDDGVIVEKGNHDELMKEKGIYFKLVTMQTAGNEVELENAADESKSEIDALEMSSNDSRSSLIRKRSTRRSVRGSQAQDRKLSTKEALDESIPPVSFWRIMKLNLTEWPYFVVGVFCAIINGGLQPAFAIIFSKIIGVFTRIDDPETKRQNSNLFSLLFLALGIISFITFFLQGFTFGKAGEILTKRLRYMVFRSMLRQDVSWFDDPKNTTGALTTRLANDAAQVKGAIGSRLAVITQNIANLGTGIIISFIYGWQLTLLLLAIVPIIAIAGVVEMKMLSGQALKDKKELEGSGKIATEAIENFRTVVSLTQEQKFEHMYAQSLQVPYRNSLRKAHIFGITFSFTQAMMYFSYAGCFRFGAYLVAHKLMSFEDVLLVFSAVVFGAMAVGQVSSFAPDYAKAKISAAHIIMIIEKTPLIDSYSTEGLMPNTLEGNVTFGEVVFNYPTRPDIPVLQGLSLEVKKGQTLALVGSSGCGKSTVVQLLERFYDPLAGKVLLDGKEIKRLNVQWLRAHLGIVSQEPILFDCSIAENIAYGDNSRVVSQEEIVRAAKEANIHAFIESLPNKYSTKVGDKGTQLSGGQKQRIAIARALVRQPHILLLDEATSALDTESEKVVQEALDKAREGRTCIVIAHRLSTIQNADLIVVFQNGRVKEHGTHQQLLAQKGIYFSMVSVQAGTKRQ

Activity [1]: inhibitor [+]
Compound: C/C=C/C[C@@H](C)C(=O)[C@H]1C(=O)N[C@@H](C(C)C)C(=O)N(C)CC(=O)N(C)[C@@H](CC(C)C)C(=O)N[C@@H](C(C)C)C(=O)N(C)[C@@H](CC(C)C)C(=O)N[C@@H](C)C(=O)N[C@H](C)C(=O)N(C)[C@@H](CC(C)C)C(=O)N(C)[C@@H](CC(C)C)C(=O)N(C)[C@@H](C(C)C)C(=O)N1C [VALSPODAR]

Activity [2]: 44%
Compound: CC[C@]1(O)C[C@@H]2CN(CCc3c([nH]c4ccccc34)[C@@](C(=O)OC)(c3cc4c(cc3OC)N(C)[C@H]3[C@@](O)(C(=O)OC)[C@H](OC(C)=O)[C@]5(CC)C=CCN6CC[C@]43[C@@H]65)C2)C1 [VINBLASTINE]

Activity [3]: 0%
Activity [4]: 0%
Compound: IVERMECTIN
